Consider 45 compounds from a melting point compilation (Tetko et al.).

In general, melting point refers to the temperature of the solid-liquid transition. `COC(=O)c1cc(Cl)cc(C(=O)OC)c1` yielded a melting point of 78 to 80 °C.

In turn, `CCN(CC)c1ccc(C=O)c(O)c1` yielded a melting point of 62 °C.

`NC(=O)c1cc(Br)cc(Br)c1` displayed a melting point of 182 °C.

In the case of `N#Cc1c(F)cccc1OCc1ccc(Cl)cc1`, the melting point lay in the range of 146 to 148 °C.

With `CNc1ccc2cc(OC)[nH]c2c1`, the melting point is 165 °C.

`CNC(=O)COC(=O)c1ccccc1` yielded a melting point of 112 °C.

The compound `O=S(=O)(Cl)c1ccccc1Br` showed a melting point of 50 to 51 °C.

Take `CC1COCc2cc3c(cc21)C(C)(C)C(C)C3(C)C` (stereo not given): the melting point was -5 °C.

For `O=C(O)CSc1nnc(S)s1`, the melting point lay in the range of 168 to 169 °C.

Regarding `OCc1ccccc1Cn1cncn1`, the melting point fell in the range of 98 to 100 °C.

Regarding `N#Cc1ccccc1-n1ccnc1`, the melting point lay in the range of 148 to 151 °C.

Compound `O=c1ccc2cc(OC3OC(CO)C(O)C(O)C3O)c(O)cc2o1` (stereo not given) displayed a melting point of 205 °C.

Take `CC(C)NC(=O)N1CC(=O)N(c2cc(Cl)cc(Cl)c2)C1=O`: the melting point is 136 °C.

For the compound `Cc1cccnc1C(N)=NO`, the melting point fell in the range of 94 to 95 °C.

In turn, `COc1ccc(C2C(=O)c3ccccc3C2=O)cc1` had a melting point of 156 °C.

In turn, `CCc1oc2ccccc2c1C(=O)c1cc(Br)c(O)c(Br)c1` registered a melting point of 151 °C.

In turn, `OCCCN1CCNCC1` came in with a melting point of 50 °C.

The compound `Cc1ccccc1F` gave a melting point of -62 °C.

The compound `CC(=O)N1CCC(C(=O)Cl)CC1` had a melting point of 132 °C.

In turn, `NS(=O)(=O)c1ccc(Cl)s1` gave a melting point of 117 °C.

As for `O=Cc1c2ccccc2cc2ccccc12`, the melting point is 105 °C.

`C=C(C)CC(C)=O` displayed a melting point of -72.6 °C.

In turn, `Nc1cccc(CN2CCCC2)c1` had a melting point of 72 to 74 °C.

`CC(CCc1ccc(CCC(C)OC(=O)Nc2ccccc2)cc1)OC(=O)Nc1ccccc1` (stereo not given): the melting point came to 165 °C.

`COC(=O)C1(C(=O)OC)Cc2cccc(OC)c2C(=O)O1` returned a melting point of 88.7 to 89.7 °C.

As for `CCOC(=O)C1=C(C)NC(C)=C(C(=O)OCC)C1c1ccco1`, the melting point was determined as 164 °C.

For `Cc1cc(Cl)c2ccccc2n1`, the melting point lay within 39 to 41 °C.

`Cc1onc(-c2c(Cl)cccc2Cl)c1C(=O)NN`: the melting point was 150 to 152 °C.

As to `O=C1CNC(=O)CN1`, the melting point amounted to 300 °C.

`O=C1CCCCCCN1` came in with a melting point of 36.5 °C.

For `O=C(O)CNC(=O)OCC1c2ccccc2-c2ccccc21`, the melting point lay within 174 to 178 °C.

Compound `Nc1ccnc2ccccc12` yielded a melting point of 155 °C.

`OC1Cc2ccccc2C1`: the melting point worked out at 70 °C.

Compound `Cc1ccc(C=C2C(N)=NC(=O)N=C2N)cc1` showed a melting point of 172 to 173 °C.

In turn, `O=[N+]([O-])c1cccc(N=C=S)c1` had a melting point of 58 to 60 °C.

The compound `COC(=O)c1sccc1N1C(=O)C=CC1=O` displayed a melting point of 130 to 131 °C.

For the compound `CC(=O)Nc1ccc(/N=N/c2ccc(N(Nc3ccc(NC(C)=O)cc3)C(C)=O)cc2)cc1`, the melting point was 218 °C.

The compound `COC(=O)[C@H]1CC[C@H](C(=O)OC)CC1` yielded a melting point of 67 to 70 °C.

Consider `O=C(Cl)c1c(Cl)cccc1Cl`, for which the melting point was 18 °C.

The compound `O=[N+]([O-])c1ccc(N=Nc2ccc([N+](=O)[O-])cc2)cc1` gave a melting point of 212 °C.

Consider `CNC(=O)Oc1ccc2c(c1)C1(C)CCOC1N2C` (stereo not given), for which the melting point came to 124 °C.

For `Cn1ccc2ccc(C=O)cc21`, the melting point worked out at 81 °C.

`CN1CCN(C2=Nc3ccccc3Oc3ccc(Cl)cc32)CC1` came in with a melting point of 110 °C.

`c1ccc2c(c1)CCc1ccccc1CC2` gave a melting point of 109 °C.

`CC(C)(C)NC(=S)c1cc(C(C)(C)C)c(O)c(C(C)(C)C)c1` showed a melting point of 203 to 204 °C.
